IC50 data for 15 molecules are collected here from patent publication US20260325533A1, “CDK INHIBITOR COMPOUNDS” (ALEKSIA THERAPEUTICS, INC., priority 2023, published 2026).

Common to all, as to type: biochemical
Assay [1] deals with CDK2/CCNE1 (Homo sapiens, UniProt P24941). The assay can be described thus: CDK2 homogeneous time-resolved fluorescence (HTRF) kinase assay. As to conditions: CDK2/CCNE. The method, boiled down:
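3 nM CDK2/CCNE1 was preincubated with compound for 20 min at 23 °C in HEPES buffer (pH not stated), then reacted 60 min with 1 mM ATP and 50 nM ULight-4E-BP1 (Thr37/46) peptide. After EDTA stop, Eu-anti-phospho-4E-BP1 antibody (2 nM) was added for 60 min and TR-FRET read at 665 nm.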

The target of assay [2] is CDK1/CCNB1 (Homo sapiens, UniProt P06493). Description: CDK1 homogeneous time-resolved fluorescence (HTRF) kinase assay. As to conditions: >250 nM; CDK1/CCNB; read-out: CDK1/CCNB IC50 >250 nM. In a few lines: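 High-ATP (1 mM) HTRF assay with 0.5 nM CDK1/cyclin B1 and 50 nM ULight-4E-BP1 (Thr37/46) substrate, 60 min at 23 °C after 20-min compound preincubation. IC50 values come from dose-response curves.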
Sequence of CDK1/CCNB1 (P06493 whole entry): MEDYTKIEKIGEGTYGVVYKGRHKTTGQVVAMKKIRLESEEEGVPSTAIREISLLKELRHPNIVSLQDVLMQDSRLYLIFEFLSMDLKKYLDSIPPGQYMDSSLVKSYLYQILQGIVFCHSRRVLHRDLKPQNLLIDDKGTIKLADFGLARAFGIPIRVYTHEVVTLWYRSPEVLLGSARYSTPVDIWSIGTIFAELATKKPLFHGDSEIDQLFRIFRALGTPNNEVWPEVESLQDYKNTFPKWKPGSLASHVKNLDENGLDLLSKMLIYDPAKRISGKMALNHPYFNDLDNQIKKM
Sequence of CDK1/CCNB1 (P14635 whole entry partner): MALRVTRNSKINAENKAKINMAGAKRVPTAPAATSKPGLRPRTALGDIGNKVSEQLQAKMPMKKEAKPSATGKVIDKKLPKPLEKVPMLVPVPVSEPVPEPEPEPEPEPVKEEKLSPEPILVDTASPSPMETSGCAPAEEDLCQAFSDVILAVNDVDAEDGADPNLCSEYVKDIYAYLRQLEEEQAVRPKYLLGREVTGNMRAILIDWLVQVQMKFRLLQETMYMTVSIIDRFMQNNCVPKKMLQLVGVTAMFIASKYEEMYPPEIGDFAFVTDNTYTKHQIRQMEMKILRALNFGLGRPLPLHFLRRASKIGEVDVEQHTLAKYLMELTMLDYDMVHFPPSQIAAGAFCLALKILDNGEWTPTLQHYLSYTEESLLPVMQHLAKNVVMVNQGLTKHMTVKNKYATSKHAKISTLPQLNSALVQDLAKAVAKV
A general note: Time-resolved FRET reads energy transfer from a long-lived donor to a nearby acceptor.

In assay [3] the target is CDK4/CCND3 (Homo sapiens, UniProt P11802). The assay can be described thus: CDK4 homogeneous time-resolved fluorescence (HTRF) kinase assay. As to conditions: >250 nM; CDK4/CCND; read-out: CDK4/CCND IC50, >250 nM. In a few lines:
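Steps: compound plus 1.5 nM CDK4/CCND3, 20 min, 23 °C; add 1 mM ATP and 50 nM ULight-4E-BP1 (Thr37/46) peptide, 60 min; stop with 10 mM EDTA; add 2 nM Eu anti-phospho antibody, 60 min; read 665 nm. IC50 from 11-point half-log series starting 10 μM.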

For assay [4], the target named is CDK6/CCND1 (Homo sapiens, UniProt Q00534). Description: CDK6 homogeneous time-resolved fluorescence (HTRF) kinase assay. As to conditions: >250 nM; CDK6/CCND; 1 mM ATP; read-out: CDK6/CCND IC50, >250 nM. The method, boiled down: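 Enzyme pre-incubated 20 min at 23 °C with compound, then reacted 60 min at 23 °C with 1 mM ATP and 50 nM ULight-4E-BP1 (Thr37/46) peptide; 1 nM enzyme, 1% DMSO. EDTA-stopped, Eu-anti-phospho antibody TR-FRET read (665 nm or 665/615 ratio); 11-point half-log titration from 10 μM gave IC50.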
Sequence of CDK6/CCND1 (Q00534 whole entry): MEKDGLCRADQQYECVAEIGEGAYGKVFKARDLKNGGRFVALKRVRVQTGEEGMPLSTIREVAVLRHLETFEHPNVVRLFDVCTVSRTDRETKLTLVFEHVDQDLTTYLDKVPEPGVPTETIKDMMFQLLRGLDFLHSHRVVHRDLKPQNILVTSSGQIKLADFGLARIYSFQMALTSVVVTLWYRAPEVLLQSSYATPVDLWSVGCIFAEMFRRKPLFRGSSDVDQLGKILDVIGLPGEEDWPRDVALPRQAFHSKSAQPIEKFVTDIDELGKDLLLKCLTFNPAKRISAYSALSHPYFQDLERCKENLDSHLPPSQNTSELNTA
Sequence of CDK6/CCND1 (P24385 whole entry partner): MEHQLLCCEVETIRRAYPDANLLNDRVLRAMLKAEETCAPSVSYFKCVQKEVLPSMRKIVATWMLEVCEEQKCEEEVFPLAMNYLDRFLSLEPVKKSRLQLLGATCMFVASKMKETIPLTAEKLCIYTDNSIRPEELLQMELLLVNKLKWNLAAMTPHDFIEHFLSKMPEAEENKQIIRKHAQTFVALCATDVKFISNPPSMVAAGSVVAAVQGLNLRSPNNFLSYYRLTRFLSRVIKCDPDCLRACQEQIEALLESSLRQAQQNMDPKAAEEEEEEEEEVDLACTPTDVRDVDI

Setting [5] is: 25-250 nM, read-out: CDK2/CCNE IC50, 25-250 nM.
The mark [6] stands for this setting: <25 nM, read-out: CDK2/CCNE IC50, <25 nM.

SMILES strings stand for the structures. Like-named read-outs stand apart in the source and are kept apart here.

Sequence of CDK4/CCND3 (P11802 whole entry): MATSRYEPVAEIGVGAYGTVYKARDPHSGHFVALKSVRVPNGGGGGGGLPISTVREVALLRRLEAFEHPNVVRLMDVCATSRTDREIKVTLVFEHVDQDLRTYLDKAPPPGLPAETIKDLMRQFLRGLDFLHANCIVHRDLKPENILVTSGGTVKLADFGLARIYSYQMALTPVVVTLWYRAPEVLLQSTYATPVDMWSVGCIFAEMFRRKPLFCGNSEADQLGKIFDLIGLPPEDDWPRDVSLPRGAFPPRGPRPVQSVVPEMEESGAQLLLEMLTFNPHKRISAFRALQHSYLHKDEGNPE
Sequence of CDK4/CCND3 (P30281 whole entry partner): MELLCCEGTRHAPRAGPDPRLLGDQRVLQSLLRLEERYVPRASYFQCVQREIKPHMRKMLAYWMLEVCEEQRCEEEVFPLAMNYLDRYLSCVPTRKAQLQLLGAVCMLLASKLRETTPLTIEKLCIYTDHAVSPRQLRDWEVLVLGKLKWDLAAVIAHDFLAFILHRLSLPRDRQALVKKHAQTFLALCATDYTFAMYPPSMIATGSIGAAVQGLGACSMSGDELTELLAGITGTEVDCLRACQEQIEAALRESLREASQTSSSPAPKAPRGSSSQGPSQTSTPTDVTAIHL

For the molecule `Cc1ccc(NS(=O)(=O)c2ccc(Nc3cc4c(-c5ccc6c(cnn6CC(O)(C(F)(F)F)C(F)(F)F)c5C)nccc4cn3)cc2)nc1N1CCOCC1` [Ex 694, 4-((5-(4-methyl-1-(3,3,3-trifluoro-2-hydroxy-2-(trifluoromethyl)propyl)-1H-indazol-5-yl)-2,6-naphthyridin-3-yl)amino)-N-(5-methyl-6-morpholinopyridin-2-yl)benzenesulfonamide], the IC50 in assay [1] (setting [5]) was 25 to 250 nM; in assay [2], greater than 250 nM; in assay [3], greater than 250 nM; in assay [4], greater than 250 nM.

As for `CCNS(=O)(=O)c1ccc(Nc2cc3c(-c4ccc5c(cnn5CC(O)(C(F)(F)F)C(F)(F)F)c4C)nccc3cn2)cc1` [Ex 695, N-ethyl-4-((5-(4-methyl-1-(3,3,3-trifluoro-2-hydroxy-2-(trifluoromethyl)propyl)-1H-indazol-5-yl)-2,6-naphthyridin-3-yl)amino)benzenesulfonamide], the IC50 in assay [1] (setting [6]) is less than 25 nM; in assay [2], greater than 250 nM; in assay [3], greater than 250 nM; in assay [4], greater than 250 nM.

Take `COc1ccc(NS(=O)(=O)c2ccc(Nc3cc4c(-c5ccc6c(cnn6CC(O)(C(F)(F)F)C(F)(F)F)c5C)nccc4cn3)cc2)nc1N1CCOCC1` [Ex 697, N-(5-methoxy-6-morpholinopyridin-2-yl)-4-((5-(4-methyl-1-(3,3,3-trifluoro-2-hydroxy-2-(trifluoromethyl)propyl)-1H-indazol-5-yl)-2,6-naphthyridin-3-yl)amino)benzenesulfonamide]: the IC50 is 25 to 250 nM in assay [1] (setting [5]), greater than 250 nM in assay [2], greater than 250 nM in assay [3] and greater than 250 nM in assay [4].

Regarding `Cc1cnc(NS(=O)(=O)c2ccc(Nc3cc4c(-c5ccc6c(cnn6CC(O)(C(F)(F)F)C(F)(F)F)c5C)nccc4cn3)cc2)cc1N1CCOCC1` [Ex 701, 4-((5-(4-methyl-1-(3,3,3-trifluoro-2-hydroxy-2-(trifluoromethyl)propyl)-1H-indazol-5-yl)-2,6-naphthyridin-3-yl)amino)-N-(5-methyl-4-morpholinopyridin-2-yl)benzenesulfonamide], the IC50 was less than 25 nM in assay [1] (setting [6]), greater than 250 nM in assay [2], greater than 250 nM in assay [3] and greater than 250 nM in assay [4].

As for `COc1cnc(NS(=O)(=O)c2ccc(Nc3cc4c(-c5ccc6c(cnn6CC(O)(C(F)(F)F)C(F)(F)F)c5C)nccc4cn3)cc2)nc1N1CCOCC1` [Ex 702, N-(5-methoxy-4-morpholinopyrimidin-2-yl)-4-((5-(4-methyl-1-(3,3,3-trifluoro-2-hydroxy-2-(trifluoromethyl)propyl)-1H-indazol-5-yl)-2,6-naphthyridin-3-yl)amino)benzenesulfonamide], the IC50 in assay [1] (setting [6]) is less than 25 nM; in assay [2] it was greater than 250 nM; in assay [3], greater than 250 nM; in assay [4], greater than 250 nM.

In the case of `COc1cc(NS(=O)(=O)c2ccc(Nc3cc4c(-c5ccc6c(cnn6CC(O)(C(F)(F)F)C(F)(F)F)c5C)nccc4cn3)cc2)nc(N2CCOCC2)c1` [Ex 703, N-(4-methoxy-6-morpholinopyridin-2-yl)-4-((5-(4-methyl-1-(3,3,3-trifluoro-2-hydroxy-2-(trifluoromethyl)propyl)-1H-indazol-5-yl)-2,6-naphthyridin-3-yl)amino)benzenesulfonamide], the IC50 in assay [1] (setting [5]) is 25 to 250 nM; in assay [2], greater than 250 nM; in assay [3], greater than 250 nM; in assay [4], greater than 250 nM.

Regarding `COc1cc(N2CCOCC2)cc(NS(=O)(=O)c2ccc(Nc3cc4c(-c5ccc6c(cnn6CC(O)(C(F)(F)F)C(F)(F)F)c5C)nccc4cn3)cc2)n1` [Ex 704, N-(6-methoxy-4-morpholinopyridin-2-yl)-4-((5-(4-methyl-1-(3,3,3-trifluoro-2-hydroxy-2-(trifluoromethyl)propyl)-1H-indazol-5-yl)-2,6-naphthyridin-3-yl)amino)benzenesulfonamide], the IC50 is 25 to 250 nM in assay [1] (setting [5]), greater than 250 nM in assay [2], greater than 250 nM in assay [3] and greater than 250 nM in assay [4].

With `Cc1cnc(NS(=O)(=O)c2ccc(Nc3cc4c(-c5ccc6c(cnn6CC(O)(C(F)(F)F)C(F)(F)F)c5C)nccc4cn3)cc2)nc1N1CCOCC1` [Ex 706, 4-((5-(4-methyl-1-(3,3,3-trifluoro-2-hydroxy-2-(trifluoromethyl)propyl)-1H-indazol-5-yl)-2,6-naphthyridin-3-yl)amino)-N-(5-methyl-4-morpholinopyrimidin-2-yl)benzenesulfonamide], the IC50 in assay [1] (setting [6]) was less than 25 nM; in assay [2], greater than 250 nM; in assay [3], greater than 250 nM; in assay [4] it was greater than 250 nM.

As to `COc1cc(N2CCOCC2)nc(NS(=O)(=O)c2ccc(Nc3cc4c(-c5ccc6c(cnn6CC(O)(C(F)(F)F)C(F)(F)F)c5C)nccc4cn3)cc2)n1` [Ex 707, N-(4-methoxy-6-morpholinopyrimidin-2-yl)-4-((5-(4-methyl-1-(3,3,3-trifluoro-2-hydroxy-2-(trifluoromethyl)propyl)-1H-indazol-5-yl)-2,6-naphthyridin-3-yl)amino)benzenesulfonamide], the IC50 in assay [1] (setting [6]) was less than 25 nM; in assay [2], greater than 250 nM; in assay [3] it was greater than 250 nM; in assay [4] it was greater than 250 nM.

In the case of `COc1ccc(NS(=O)(=O)c2ccc(Nc3cc4c(-c5ccc6c(cnn6CC(O)(C(F)(F)F)C(F)(F)F)c5C)nccc4cn3)cc2)cc1C(C)(C)O` [Ex 709, N-(3-(2-hydroxypropan-2-yl)-4-methoxyphenyl)-4-((5-(4-methyl-1-(3,3,3-trifluoro-2-hydroxy-2-(trifluoromethyl)propyl)-1H-indazol-5-yl)-2,6-naphthyridin-3-yl)amino)benzenesulfonamide], the IC50 in assay [1] (setting [5]) is 25 to 250 nM; in assay [2], greater than 250 nM; in assay [3] it was greater than 250 nM; in assay [4], greater than 250 nM.

With `Cc1c(-c2nccc3cnc(Nc4ccc(S(=O)(=O)Nc5cc(C(C)(C)O)ccn5)cc4)cc23)ccc2c1cnn2CC(O)(C(F)(F)F)C(F)(F)F` [Ex 710, N-(4-(2-hydroxypropan-2-yl)pyridin-2-yl)-4-((5-(4-methyl-1-(3,3,3-trifluoro-2-hydroxy-2-(trifluoromethyl)propyl)-1H-indazol-5-yl)-2,6-naphthyridin-3-yl)amino)benzenesulfonamide], the IC50 in assay [1] (setting [6]) is less than 25 nM; in assay [2] it was greater than 250 nM; in assay [3] it was greater than 250 nM; in assay [4] it was greater than 250 nM.

In the case of `Cc1c(-c2nccc3cnc(Nc4ccc(S(=O)(=O)Nc5cccc(C(C)(C)O)n5)cc4)cc23)ccc2c1cnn2CC(O)(C(F)(F)F)C(F)(F)F` [Ex 711, N-(6-(2-hydroxypropan-2-yl)pyridin-2-yl)-4-((5-(4-methyl-1-(3,3,3-trifluoro-2-hydroxy-2-(trifluoromethyl)propyl)-1H-indazol-5-yl)-2,6-naphthyridin-3-yl)amino)benzenesulfonamide], the IC50 in assay [1] (setting [6]) was less than 25 nM; in assay [2], greater than 250 nM; in assay [3], greater than 250 nM; in assay [4], greater than 250 nM.

On to `Cc1c(-c2nccc3cnc(Nc4ccc(S(=O)(=O)Nc5cccc(C(C)(C)O)c5)cc4)cc23)ccc2c1cnn2CC(O)(C(F)(F)F)C(F)(F)F` [Ex 712, N-(3-(2-hydroxypropan-2-yl)phenyl)-4-((5-(4-methyl-1-(3,3,3-trifluoro-2-hydroxy-2-(trifluoromethyl)propyl)-1H-indazol-5-yl)-2,6-naphthyridin-3-yl)amino)benzenesulfonamide], for which the IC50 in assay [1] (setting [5]) is 25 to 250 nM; in assay [2], greater than 250 nM; in assay [3] it was greater than 250 nM; in assay [4], greater than 250 nM.

With `Cc1c(-c2nccc3cnc(Nc4ccc(S(=O)(=O)Nc5ccccc5N5CCOCC5)cc4)cc23)ccc2c1cnn2CC(O)(C(F)(F)F)C(F)(F)F` [Ex 713, 4-((5-(4-methyl-1-(3,3,3-trifluoro-2-hydroxy-2-(trifluoromethyl)propyl)-1H-indazol-5-yl)-2,6-naphthyridin-3-yl)amino)-N-(2-morpholinophenyl)benzenesulfonamide], the IC50 is 25 to 250 nM in assay [1] (setting [5]), greater than 250 nM in assay [2], greater than 250 nM in assay [3] and greater than 250 nM in assay [4].

Regarding `COc1ccccc1NS(=O)(=O)c1ccc(Nc2cc3c(-c4ccc5c(cnn5CC(O)(C(F)(F)F)C(F)(F)F)c4C)nccc3cn2)cc1` [Ex 714, N-(2-methoxyphenyl)-4-((5-(4-methyl-1-(3,3,3-trifluoro-2-hydroxy-2-(trifluoromethyl)propyl)-1H-indazol-5-yl)-2,6-naphthyridin-3-yl)amino)benzenesulfonamide], the IC50 is 25 to 250 nM in assay [1] (setting [5]), greater than 250 nM in assay [2], greater than 250 nM in assay [3] and greater than 250 nM in assay [4].
